Experimental findings from PubChem BioAssay (NCI) are described below.

Structures are written as SMILES.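 Briefly, cells in 96-well plates were exposed to five compound concentrations for 48 h, and endpoints were estimated by linear interpolation. Here, GI50 denotes the concentration required for 50% inhibition of growth. TGI: concentration producing complete growth inhibition.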

Among the test systems are HCT-15 colon; OVCAR-3 ovarian; IGROV1 ovarian; UACC-257 melanoma; SK-MEL-2 melanoma; U251 CNS; HCT-116 colon; MDA-MB-435; HL-60(TB) leukemia; UACC-62 melanoma.
Holding throughout (assay): inhibition of tumour cell growth, NCI panel, 48 h

For the molecule `C/C=C\C(C)=C/C(C)C(=O)CC(O)CC1CC(=O)NC(=O)C1` (stereo not given), the TGI with HCT-15 colon, in the assay on OVCAR-3 ovarian, in the assay with IGROV1 ovarian, in the assay on UACC-257 melanoma, in the assay on SK-MEL-2 melanoma and with U251 CNS was more than 100 µM throughout. The TGI in the assay with HCT-116 colon is more than 100 µM; in the assay with MDA-MB-435 it was more than 100 µM; with HL-60(TB) leukemia, more than 100 µM; in the assay with UACC-62 melanoma, more than 64.1 µM.
For `CCS(=O)(=O)Nc1ccc(Oc2ccc(F)cc2F)c(-c2cn(C)c(=O)c3[nH]ccc23)c1`, the GI50 with HCT-15 colon was 0.0404 µM; in the assay on OVCAR-3 ovarian, 0.0402 µM; with IGROV1 ovarian it was 0.0327 µM; with UACC-257 melanoma, 0.0448 µM; in the assay on SK-MEL-2 melanoma, 0.761 µM; with U251 CNS, 0.293 µM. Besides, the GI50 in the assay with HCT-116 colon was 0.0321 µM; in the assay on MDA-MB-435, less than 0.0112 µM; in the assay with HL-60(TB) leukemia it was less than 0.01 µM; in the assay on UACC-62 melanoma, less than 0.01 µM. In addition, the TGI is 19.5 µM with HCT-15 colon; 19.6 µM in the assay with OVCAR-3 ovarian; 20.5 µM in the assay on IGROV1 ovarian; 23.1 µM with UACC-257 melanoma; 15.9 µM in the assay on SK-MEL-2 melanoma; 16.8 µM in the assay with U251 CNS. For the same molecule, the TGI in the assay with HCT-116 colon came to 12.8 µM; with MDA-MB-435, 13.3 µM; in the assay on HL-60(TB) leukemia, 0.249 µM; in the assay with UACC-62 melanoma it was 6.28 µM.
Take `CCCCCCCCCCCCOC1C(C(COC2OC(C(O)CO)C3OC(C)(C)OC23)OC(=O)Nc2ccc([N+](=O)[O-])cc2)OC2OC(C)(C)OC21` (stereo not given): the GI50 with HCT-15 colon is 3.3 µM; in the assay on OVCAR-3 ovarian, 1.65 µM; in the assay on IGROV1 ovarian, 2.34 µM; in the assay with UACC-257 melanoma it was 3.53 µM; in the assay on SK-MEL-2 melanoma, 2.09 µM; with U251 CNS it was 1.85 µM. Also, the GI50 in the assay on HCT-116 colon is 1.77 µM; in the assay with MDA-MB-435, 1.84 µM; in the assay with HL-60(TB) leukemia it was 3.36 µM; in the assay on UACC-62 melanoma, 2.06 µM. The TGI in the assay with HCT-15 colon came out at 11.1 µM; in the assay on OVCAR-3 ovarian, 3.14 µM; in the assay with IGROV1 ovarian it was 5.73 µM; with UACC-257 melanoma it was 9.35 µM; in the assay on SK-MEL-2 melanoma, 5.09 µM; in the assay on U251 CNS it was 3.59 µM. In addition, the TGI came out at 3.45 µM with HCT-116 colon, 3.68 µM in the assay on MDA-MB-435, 8.92 µM with HL-60(TB) leukemia and 4.61 µM in the assay with UACC-62 melanoma.
For `Cn1c([N+](=O)[O-])cnc1/C=C1\Oc2ccc(Cl)cc2C1=O`, the GI50 in the assay with HCT-15 colon was 0.251 µM; in the assay on OVCAR-3 ovarian it was 0.307 µM; in the assay on IGROV1 ovarian, 1.22 µM; in the assay with UACC-257 melanoma it was 1.95 µM; in the assay with SK-MEL-2 melanoma, 0.901 µM; in the assay on U251 CNS, 1.16 µM. Further, the GI50 in the assay with HCT-116 colon was 0.247 µM; in the assay on MDA-MB-435, 0.354 µM; with HL-60(TB) leukemia, 0.511 µM; in the assay on UACC-62 melanoma it was 1.24 µM. In addition, the TGI was determined as 1.04 µM with HCT-15 colon; 0.952 µM in the assay with OVCAR-3 ovarian; 8.29 µM with IGROV1 ovarian; 5.2 µM in the assay with UACC-257 melanoma; 3.04 µM in the assay on SK-MEL-2 melanoma; 3.01 µM in the assay on U251 CNS. Further, the TGI in the assay with HCT-116 colon is 0.793 µM; in the assay with MDA-MB-435, 1.95 µM; in the assay with HL-60(TB) leukemia, 4.67 µM; in the assay on UACC-62 melanoma, 3.27 µM.
Consider `O=C1/C(=C/c2ccc([N+](=O)[O-])s2)Oc2ccc(Cl)cc21`, for which the GI50 in the assay with HCT-15 colon is 0.192 µM; in the assay on OVCAR-3 ovarian it was 0.229 µM; in the assay on IGROV1 ovarian, 0.311 µM; in the assay with UACC-257 melanoma, 0.63 µM; in the assay with SK-MEL-2 melanoma, 0.26 µM; in the assay with U251 CNS, 0.263 µM. Further, the GI50 with HCT-116 colon was 0.222 µM; in the assay on MDA-MB-435, 0.457 µM; in the assay with HL-60(TB) leukemia, 0.423 µM; in the assay with UACC-62 melanoma, 0.271 µM. Also, the TGI in the assay with HCT-15 colon was found to be 0.55 µM; in the assay on OVCAR-3 ovarian it was 0.48 µM; in the assay with IGROV1 ovarian, 0.983 µM; in the assay on UACC-257 melanoma, 2.25 µM; in the assay with SK-MEL-2 melanoma, 0.624 µM; with U251 CNS it was 0.694 µM. For the same molecule, the TGI in the assay on HCT-116 colon turned out to be 0.535 µM; in the assay with MDA-MB-435, 1.55 µM; in the assay on HL-60(TB) leukemia, 2.15 µM; with UACC-62 melanoma, 0.771 µM.
On to `Cc1ccc(S(=O)(=O)NC(CCCCN)C(=O)CCl)cc1` (stereo not given), for which the GI50 in the assay on HCT-15 colon was 72.4 µM; with OVCAR-3 ovarian, 33.2 µM; in the assay with IGROV1 ovarian, more than 100 µM; in the assay with UACC-257 melanoma, more than 100 µM; in the assay with SK-MEL-2 melanoma, 67.5 µM; with U251 CNS, 29 µM. Besides, the figures for the GI50 in the assay with HCT-116 colon, in the assay on MDA-MB-435 and with UACC-62 melanoma were 90.7 µM, 22.2 µM and 58.3 µM, respectively. For the same molecule, the TGI in the assay on HCT-15 colon, in the assay with OVCAR-3 ovarian, in the assay on IGROV1 ovarian, in the assay with UACC-257 melanoma, in the assay with SK-MEL-2 melanoma and in the assay on U251 CNS was more than 100 µM in each case. Also, the values for the TGI in the assay on HCT-116 colon, with MDA-MB-435 and in the assay with UACC-62 melanoma were more than 100 µM, 67.9 µM and more than 100 µM, respectively.
Regarding `COc1ccc(N2CCN(CC(=O)N3CCN(c4nnc(-c5ccc(Cl)cc5)c(-c5ccc(Cl)cc5)n4)CC3)CC2)cc1`, the GI50 was 6.8 µM with HCT-15 colon; 11.3 µM in the assay on OVCAR-3 ovarian; 16 µM in the assay with IGROV1 ovarian; 18.9 µM in the assay on UACC-257 melanoma; 25.8 µM in the assay with SK-MEL-2 melanoma; 10.6 µM in the assay with U251 CNS. Besides, the GI50 in the assay on HCT-116 colon is 3.96 µM; in the assay on MDA-MB-435 it was 9.06 µM; in the assay on HL-60(TB) leukemia, 14.3 µM. Besides, the TGI with HCT-15 colon, with OVCAR-3 ovarian, in the assay with IGROV1 ovarian, in the assay with UACC-257 melanoma, with SK-MEL-2 melanoma and with U251 CNS was more than 100 µM each time. The TGI in the assay with HCT-116 colon, in the assay with MDA-MB-435 and in the assay with HL-60(TB) leukemia was more than 100 µM in each case.
With `CC(C)(O)C1CC(=O)C(C)(C2C(O)CC3(C)C4CC=C5C(CCC(O)C5(C)C)C4(C)C(=O)CC23C)O1` (stereo not given), the TGI with HCT-15 colon, in the assay on OVCAR-3 ovarian, with IGROV1 ovarian, with UACC-257 melanoma, in the assay on SK-MEL-2 melanoma and in the assay with U251 CNS was more than 100 µM each time. Further, the TGI in the assay with HCT-116 colon, in the assay with MDA-MB-435 and in the assay on UACC-62 melanoma was more than 100 µM each time.
